Tests used:
Assay in all cases: cells
Format in all cases: cell-based
[1] = tested on: 293T; conditions: Homo sapiens, HEK-293T, 72 h, read-out: 293T IC50 nM
[2] = tested on: MES SA DX; conditions: Homo sapiens, 72 h, read-out: MES SA DX IC50 nM
[3] = tested on: MES SA; conditions: Homo sapiens, 72 h, read-out: MES SA IC50 nM

SMILES | IC50 [1] | IC50 [2] | IC50 [3]
COc1c2c(c(O)c3c4c(c(C)cc13)C1C3OC5(C(OC)OC)OC15[C@]1(CO1)[C@]3(OC1CC(OC(C)=O)C(O)(C(C)=O)C(C)O1)O4)C(=O)[C@@H](O)C[C@@H]2O (stereo partly drawn) [Trox15] | 95.4 nM | > 1000 nM | 157 nM
COc1c2c(c(O)c3c4c(c(C)cc13)C1C3OC5(C(OC)OC)OC15[C@]1(CO1)[C@]3(OC1CC(OC(C)=O)C(O)(C(C)=O)C(C)O1)O4)C(=O)[C@@H](O)C[C@@H]2OC1CC(C)(O)C(OC(C)=O)C(C)O1 (stereo partly drawn) [Trox16] | 2.81 nM | > 1000 nM | 2.02 nM
COc1c2c(c(O)c3c4c(c(C)cc13)C1C3OC5(C(OC)OC)OC15[C@]1(CO1)[C@]3(OC1CC(O)C(O)(C(C)=O)C(C)O1)O4)C(=O)[C@@H](O)C[C@@H]2OC1CC(C)(O)C(OC(C)=O)C(C)O1 (stereo partly drawn) [Trox13] | 0.702 nM | 204 nM | 0.74 nM
COc1c2c(c(O)c3c4c(c(C)cc13)C1C3OC5(C(OC)OC)OC15[C@]1(CO1)[C@]3(O)O4)C(=O)[C@@H](O)C[C@@H]2OC1CC(C)(O)C(OC(C)=O)C(C)O1 (stereo partly drawn) [Trox12] | 14.9 nM | > 1000 nM | 18.1 nM
COc1c2c(c(O)c3c4c(c(C)cc13)C1C3OC5(C(OC)OC)OC15[C@]1(CO1)[C@]3(OC1CC(O)C(O)(C(C)=O)C(C)O1)O4)C(=O)[C@@H](O)C[C@@H]2OC1CC(C)(O)C(O)C(C)O1 (stereo partly drawn) [Trox14] | 8.02 nM | > 1000 nM | 11.1 nM
